{"source": "patent US9526707B2", "about": "“Methods for treating or preventing neuroinflammation or autoimmune diseases” (priority 2007, dated 2016)", "key": {"[1]": {"system": "Experimental Autoimmune Encephalomyelitis (EAE) in C57BL/6 mice", "assay": "Experimental Autoimmune Encephalomyelitis (EAE) model, treatment started two days prior to MOG booster", "type": "in vivo, mouse", "conditions": "for effect on EAE clinical symptoms (in words): treated versus control animals, FIG. 1, 3, 4, 5", "source_text": "(§1) One method of showing the efficacy of the disclosed compounds for the treatment of various conditions associated with multiple sclerosis (MS) is its ability to inhibit effects of Experimental Autoimmune Encephalomyelitis (EAE) in laboratory animals. EAE is an animal model for MS, which entails inducing a T-cell-mediated autoimmune disease against myelin basic protein in certain susceptible mammalian species. The EAE model is an appropriate method for studying the inflammation of the brain and spinal cord associated with MS (see Bolton, C. Mult. Scler. 1995; 1(3); 143-9). […] The symptoms that are observed in animals vary from mild gait disturbances and tail atony to complete paralysis and death. These clinical manifestations are given a clinical score ranging from 0 to 5. In the present situation, the scores were based on the following criteria: clinical score 0, no signs; 1.0 limp tail; 2.0 limptail with loss of righting; 3.0 paralysis of single hind limb; 4.0 paralysis of both hind limbs; 5.0 death. Weight loss typically occurs. In animals that survive, spontaneous recovery occurs, accompanied by variable recovery of most motor function. Depending on the species, allergen, and methodology used, animals tested by the EAE model may experience a single (acute EAE) or several (chronic relapsing EAE) attacks.\nExperimental autoimmune encephalomyelitis was induced in C57BL/6 mice using the following protocol. Female C57BL/6 mice (6-8 weeks old, N=24) purchased from Jackson Labs, were allowed to acclimate for one week prior to EAE induction. EAE was induced using myelin oligodendrocyte glycoprotein peptide 35-55 (MOG35-55, MEVGWYRSPFSRVVHL-YRNGK). The MOG35-55 injection with Freund's adjuvant was administered subcutaneously adjacent to the hind leg. At the same time, the animals received an injection of pertussis toxin (200 ng in 200 μL phosphate buffered saline (PBS), intraperitoneally), and a second pertussis toxin injection two days later. Mice were given a booster injection of MOG35-55 at day No. 7. Two or three days after the second MOG booster injection, some animals begin to show signs of EAE. The mice are monitored daily using the clinical scoring system described above.\nIn addition, Didox delayed the onset of the disease in the minority of animals in which it occurred in the Didox treatment group, 7.3 days versus 4.4 days for the control group. […] For example, at the plateau of the clinical condition on day 12 for both the Didox and saline (control) group, represented by the open squares ? the mean clinical score was only 0.45 for the Didox treated cohort compared to a score of 1.9 for the control group. […]"}, "mouse cytokines in serum": {"system": "mouse cytokines in serum", "assay": "Serum cytokine levels in EAE mice, BioPlex multiplexable bead assay", "type": "in vivo", "description": "The effect of Didox on cytokine levels was tested. As before, two groups were assembled, one treated with Didox while the other group served as a control and only received saline injections. […] EAE was initiated in all animals depicted at the same time and in an identical manner. All animals were of the same experimental time point at the time of serum collection for cytokine analysis. The Didox treated group experienced a decrease of two points in the EAE clinical score. The analysis of cytokine levels was performed by utilizing a BioPlex® multiplexable bead assay method that simultaneously quantitates mouse cytokines in diverse matrices. In this example the assay was carried out on serum derived from mice of the two groups (Didox and saline treated) at day 12 post MOG induced EAE. Blood was obtained by cardiac aspiration from mice that had been euthanized by CO2. Serum was obtained from clotted blood after centrifugation and stored at […] until assayed. For analysis the serum was diluted and analyzed with the Bio-Plex® assay system. The system utilized beads that are internally labeled with two fluorescent dyes (one for identification of the bead and one for covalent attachment of ligands (or biomolecules). Once an antibody was conjugated to the bead a sample of serum was added and followed by a reporter antibody that is often biotinylated. Following incubation with biotinylated reporter antibody, strepavidin/phycoerythrin was added to make detection possible. The system can profile up to 23 mouse cytokines. Table B indicates the amount of cytokine present (pg/mL) in the serum."}, "[2]": {"system": "T-cells in splenocytes from C57BL/6 mice", "assay": "T-cell proliferation of CD3/CD28 stimulated splenocytes (BrdU)", "type": "cell-based, mouse", "conditions": "48 hours with compound, b156: at 100 μM", "description": "A series of in vitro experiments were conducted to ascertain the effect of Didox on immune function. A mixed splenocyte preparation was divided into two portions, one was stimulated with CD3 and CD28 to specifically activate T-cells while the other served as a control. The splenocytes were isolated from female C57BL/6 mice (6-8 weeks old) and the splenocytes were incubated for 24 hours with CD3/CD28 coated wells, after which Didox was added at varying concentrations. The cells were then incubated for an additional 48 hours. Each well was labeled with BrdU for the last 24 hours and the wells analyzed according to the manufacturer's instructions (Roche-Cell Proliferation Chemiluminescent assay kit). FIG. 7 depicts the results of these experiments. The solid black bars represent un-stimulated splenocytes while the white bars the effect of varying concentrations of Didox on the amount of T-Cells present."}, "EAE mice": {"system": "EAE mice", "assay": "EAE model, treatment started when mice had reached clinical stage 2 or more (clinical score)", "type": "in vivo, mouse", "conditions": "treatment begun at clinical stage 2 or more"}, "[3]": {"system": "Experimental Autoimmune Encephalomyelitis (EAE) in C57BL/6 mice", "assay": "EAE model, treatment started at day 16 after MOG booster (established symptoms)", "type": "in vivo, mouse", "conditions": "250 mg/kg intraperitoneally, started 16 days after MOG35-55 booster", "source_text": "as §1, with “attacks. […]” for “attacks.”"}, "activated T-cells": {"system": "activated T-cells", "assay": "Secretion of inflammatory cytokines by activated T-Cells in vitro", "type": "cell-based", "source_text": "The purpose of this example was to determine whether Didox treatment of T-Cells in vitro produced similar data as was found in vivo using the EAE model."}, "[4]": {"system": "activated microglia isolated from rat brain", "assay": "Nitrite production by LPS-activated microglia", "type": "cell-based", "source_text": "To further evaluate the beneficial effect of Didox on brain tissue, we analyzed the ability of Didox to attenuate the production of nitrite by activated microglia, which are major contributors to the inflammatory status of EAE mice. Microglia were isolated from rat brain and activated with lipopolysaccharide (LPS) in the presence or absence of increasing concentrations of Didox. […] This observation, together with the attenuation of the T-cell inflammatory response would both contribute to the biological activity of Didox to reduce the severity of EAE."}, "[5]": {"conditions": "serum, treated versus saline treated EAE mice"}, "[6]": {"conditions": "clinical score 0 to 5, treated from day -2 before MOG booster"}, "[7]": {"conditions": "48 hours treatment of activated T-cells, even at 5 μM"}}, "note": "“Also recorded” adds a separate entry of the source. Counter-ions that a name gives are not always drawn.", "data": [{"smiles": "NC(=O)NO", "note": "[hydroxyurea, reference compound]", "values": [{"measurement": "effect on EAE clinical symptoms (in words)", "setting": "[1]", "value": "did not show evidence of treating neurodegenerative diseases"}]}, {"smiles": "O=C(NO)c1ccc(O)c(O)c1", "note": "[Didox, N,3,4-trihydroxybenzamide]", "values": [{"measurement": "IL-4 in serum", "setting": "mouse cytokines in serum; day 12 post MOG induced EAE, control 0 ± 0", "value": "0 ± 0", "unit": "pg/mL"}, {"measurement": "IL-2 in serum", "setting": "mouse cytokines in serum; day 12 post MOG induced EAE, control 2 ± 2", "value": "0.7 ± 0.2", "unit": "pg/mL"}, {"measurement": "IL-5 in serum", "setting": "mouse cytokines in serum; day 12 post MOG induced EAE, control 6 ± 5", "value": "2 ± 1", "unit": "pg/mL"}, {"measurement": "GM-CSF in serum", "setting": "mouse cytokines in serum; day 12 post MOG induced EAE, control 7 ± 4", "value": "0.4 ± 0.5", "unit": "pg/mL"}, {"measurement": "IFN-g in serum", "setting": "mouse cytokines in serum; day 12 post MOG induced EAE, control 10 ± 3", "value": "3 ± 1", "unit": "pg/mL"}, {"measurement": "IL-10 in serum", "setting": "mouse cytokines in serum; day 12 post MOG induced EAE, control 16 ± 7", "value": "3 ± 1", "unit": "pg/mL"}, {"measurement": "IL-17 in serum", "setting": "mouse cytokines in serum; day 12 post MOG induced EAE, control 83 ± 29", "value": "2 ± 0.2", "unit": "pg/mL"}, {"measurement": "TNF-α in serum", "setting": "mouse cytokines in serum; day 12 post MOG induced EAE, control 219 ± 132", "value": "61 ± 46", "unit": "pg/mL"}, {"measurement": "IL-12 in serum", "setting": "mouse cytokines in serum; day 12 post MOG induced EAE, control 559 ± 276", "value": "36 ± 14", "unit": "pg/mL"}, {"measurement": "reduction for IL-12", "setting": "mouse cytokines in serum; [5]", "value": 15, "unit": "fold"}, {"measurement": "reduction for Il-10", "setting": "mouse cytokines in serum; [5]", "value": 5.0, "unit": "fold"}, {"measurement": "reduction for TNF levels", "setting": "mouse cytokines in serum; [5]", "value": 3.5, "unit": "fold"}, {"measurement": "reduction in IL-17", "setting": "mouse cytokines in serum; [5]", "value": "approximately 35 fold"}, {"measurement": "level of T-Cell proliferation", "setting": "[2]", "value": "reduces the level of T-cells to the amount present in un-stimulated cells; also recorded: reduced to that for un-stimulated cells"}, {"measurement": "decrease in the EAE clinical score", "setting": "EAE mice", "value": "two"}, {"measurement": "Max. Score", "setting": "[1]; [6]", "value": 3}, {"measurement": "Max. Score (mean +/− SEM)", "setting": "[1]; [6]", "value": "0.45 +/− 0.31"}, {"measurement": "percentage of animals that exhibited any clinical symptom of the disease", "setting": "[1]; control 78%", "value": 27, "unit": "%"}, {"measurement": "mean clinical score", "setting": "[1]; day 12, plateau of the clinical condition, control 1.9", "value": 0.45}, {"measurement": "onset of the disease", "setting": "[1]; in the minority of animals in which it occurred, control 4.4 days", "value": 7.3, "unit": "days"}, {"measurement": "Day of Disease Onset", "setting": "[1]; treated from day -2 before MOG booster", "value": "7.33 +/− 1.73"}, {"measurement": "effect on EAE clinical symptoms (in words)", "setting": "[1]", "value": "reduced the severity and delayed the onset of the clinical manifestation of the disease"}, {"measurement": "reduction in average clinical score", "setting": "[3]", "value": "more than 50%"}, {"measurement": "secretion of IFNγ", "setting": "activated T-cells; 24 hours treatment", "value": "does not reduce the levels of these cytokines to background; also recorded: reduced to less than half the level secreted by the untreated activated T-cells"}, {"measurement": "secretion of IL-17", "setting": "activated T-cells; 24 hours treatment", "value": "does not reduce the levels of these cytokines to background"}, {"measurement": "secretion of IFNγ", "setting": "activated T-cells; [7]", "value": "down to baseline levels"}, {"measurement": "secretion of IL-17", "setting": "activated T-cells; [7]", "value": "down to baseline levels"}, {"measurement": "nitrite production", "setting": "[4]; 100 μM treatment", "value": "reached base line levels"}, {"measurement": "nitrite production, dose dependence", "setting": "[4]; increasing concentrations", "value": "dose dependent attenuation of nitrite production"}]}, {"smiles": "NC(=NO)c1ccc(O)c(O)c1", "note": "(as salt: hydrochloride) [Example I, 3,4-dihydroxybenzamidoxime]", "values": [{"measurement": "melting point", "value": "193 °C (dec.)"}]}]}
